These results are taken from patent US20050058600A1, “3,3'-Diindolylmethane antiandrogenic compositions” (priority 2003, published 2005).

In one assay the test system is LNCaP cells. As to the kind of experiment: LNCaP cell proliferation (cell counting). Particulars: Homo sapiens, 96 h treatment, read-out: maximal inhibition of LNCaP cell proliferation. It counts as cell-based. The protocol: DIM was prepared from I3C as described (26-28) and recrystallized in toluene. The human prostate adenocarcinoma cell lines LNCaP-FGC and PC-3 were obtained from the American Type Culture Collection (Rockville, Md.). They were grown as adherent monolayers in 10% FBS-DMEM, supplemented with 4.0 g/L glucose and 3.7 g/L sodium bicarbonate in a humidified incubator at 37° C. and 5% CO2 and passaged at approximately 80% confluency. Cultures used in subsequent experiments were at less than 40 passages. Cells grown in stripped conditions were in 5% DCC-FBS-DMEM base supplemented with 4.0 g/L glucose, 3.7 g/L sodium bicarbonate, and 0.293 g/L L-Glutamine.
Cell Growth. Before the beginning of the treatments, cells were depleted of androgen for 4-7 d in medium composed of DMEM base without phenol-red and with 4.0 g/L glucose and 3.7 g/L sodium bicarbonate. During the depletion period, medium was changed every 48 h. Treatments were administered by addition of 1 μL of 1,000× solution in DMSO per mL of medium. Once the treatment period started, medium was changed daily to counter possible loss of readily metabolized compounds.
Cell Counting. Cells were harvested by trypsinization and resuspended in culture medium. Aliquots were diluted 50-fold in Isoton II (Coulter Corp., Miami, Fla.) and 200 μL duplicates were counted in a model Z1 Coulter particle counter and averaged.

For the next assay, the system named is GFP-AR. As to the kind of experiment: Fluorescence imaging of GFP-AR in transfected PC-3 cells. It is filed as cell-based. The protocol: Transient Transfections with Reporters and Luciferase Assay. LNCaP and PC-3 cells were transfected, with some modifications, as previously described (20). For AR transactivation, cells were transfected with 0.1 μg of MMTV-Luc or pPSA-Luc per plate. Co-transfection experiments with pCMV-hAR or pCMV-GFP-rAR, 0.1 μg per plate was also used. For experiments involving GFP fluorescence imaging, treatments were not added until 30 h after transfection.
Fluorescence Imaging. PC-3 cells were plated on cover slips in six-well culture plates at 1.5×10^5 cells per well in 5% DCC-FBS-DMEM medium. Cells were co-transfected with pCMV-GFP-rAR and pPSA-Luc or MMTV-Luc as indicated above. Cover slips were placed on microscope slides and images were taken at 1000×.

A further assay addresses T1, mutant AR of LNCaP cells (Homo sapiens, UniProt P10275, T878A).
T1 construct: 95 μL of either LNCaP cell extracts or recombinant AR protein; endogenous in cells; host or cells: LNCaP
T1 sequence (P10275 1-920 T878A): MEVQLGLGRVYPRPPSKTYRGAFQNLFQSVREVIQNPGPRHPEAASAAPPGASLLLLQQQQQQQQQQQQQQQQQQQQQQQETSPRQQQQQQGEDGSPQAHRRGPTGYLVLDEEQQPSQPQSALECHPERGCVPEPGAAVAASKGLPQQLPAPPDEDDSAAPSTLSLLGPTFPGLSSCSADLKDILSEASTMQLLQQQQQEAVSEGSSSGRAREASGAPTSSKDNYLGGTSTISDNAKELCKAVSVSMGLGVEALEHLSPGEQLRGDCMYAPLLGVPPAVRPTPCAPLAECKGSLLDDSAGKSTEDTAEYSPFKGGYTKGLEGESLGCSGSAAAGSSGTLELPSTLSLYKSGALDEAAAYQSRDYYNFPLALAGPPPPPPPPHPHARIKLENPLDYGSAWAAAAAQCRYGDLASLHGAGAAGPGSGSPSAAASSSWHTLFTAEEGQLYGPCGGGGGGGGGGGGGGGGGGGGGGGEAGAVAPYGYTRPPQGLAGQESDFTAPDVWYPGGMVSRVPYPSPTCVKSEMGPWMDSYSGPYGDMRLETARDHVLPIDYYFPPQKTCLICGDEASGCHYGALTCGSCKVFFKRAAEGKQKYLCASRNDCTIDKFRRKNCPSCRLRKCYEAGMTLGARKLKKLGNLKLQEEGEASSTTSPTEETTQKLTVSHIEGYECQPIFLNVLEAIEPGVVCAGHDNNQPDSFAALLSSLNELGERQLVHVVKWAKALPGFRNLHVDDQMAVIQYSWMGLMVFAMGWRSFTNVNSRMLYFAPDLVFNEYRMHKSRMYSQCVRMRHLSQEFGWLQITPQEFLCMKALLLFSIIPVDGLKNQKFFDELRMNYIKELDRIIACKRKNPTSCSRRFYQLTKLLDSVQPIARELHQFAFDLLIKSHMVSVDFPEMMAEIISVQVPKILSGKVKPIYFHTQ
As to the kind of experiment: Competitive [3H]DHT binding assay, LNCaP cell extracts. As to conditions: micromolar concentration range.

In a further assay the target is T2, AR (Homo sapiens, UniProt P10275, T878A).
T2 construct: 95 μL of either LNCaP cell extracts or recombinant AR protein; endogenous in cells; host or cells: LNCaP
T2 sequence (P10275 1-920 T878A): T1 sequence (P10275 1-920 T878A)
In words: AR cytoplasmic/nuclear distribution by subcellular fractionation and Western blot in LNCaP cells. It counts as cell-based. The protocol: Subcellular Fractionation. Three near confluent (80-90%) cultures of LNCaP cells in 100 mm Petri dishes were used for each treatment. Treatments were added as 1 μL of 1,000× solution in DMSO per ml of medium for the indicated time. After incubation with treatments at 37° C., cytosolic and nuclear proteins were prepared as described (32,33) with modifications. Briefly, cells were lysed in hypotonic buffer (10 mM Hepes, pH 7.5) and harvested in MDH buffer (3 mM MgCl2, 1 mM DTT, 25 mM Hepes, pH 7.5). After homogenization, supernatant was saved for cytosolic proteins and nuclear proteins were extracted from the pellets using MDHK buffer (3 mM MgCl2, 1 mM DTT, 0.1 M KCl, 25 mM Hepes, pH 7.5) followed by HDK buffer (25 mM Hepes, pH 7.5, 1 mM DTT, 0.4 M KCl). Cytosolic and nuclear extracts were subsequently analyzed by Western blot analysis.
Western Blot Analysis. Following the indicated treatment, Western immunoblot analyses of androgen receptor from LNCaP cells were performed as described previously (20). […] The amount of protein was quantified by Gel Densitometer (Bio-Rad) and normalized with P-actin when used as an internal control.
Background: A western blot detects proteins with antibodies after separation by electrophoresis.

In assay [1] the test system is benzo(a)pyrene (BP)-induced tumors of the forestomach. Particulars: mice; cited from earlier work.
Assay [2] deals with dimethylbenzanthracene (DMBA)-induced mammary tumors. As to conditions: rats; cited from earlier work.

Protocol for mutant AR of LNCaP cells: Hormone Binding Assay. LNCaP cells were grown in 5% DCC-FBS-DMEM medium supplemented with 4.0 g/L glucose and 3.7 g/L sodium bicarbonate and harvested in HBS containing 1.5 mM EDTA by scraping with a rubber policeman. The cells were placed on ice, collected by centrifugation, washed with ice-cold TKEG buffer (20 mM Tris-HCl pH 7.4, 50 mM KCl, 1 mM EDTA, 0.1 mM PMSF, and 10% glycerol) and resuspended in 250 μL/plate homogenization buffer (50 mM Tris-HCl pH 7.4, 1.5 mM EDTA, 10 mM sodium molybdate, 2.5 mM β-mercaptoethanol, 50 mM KCl, 0.1 mM PMSF, and 10% glycerol). Cells were homogenized using a Polytron apparatus at medium speed for 1 min on ice. The homogenates were centrifuged at 50,000 rpm in 4° C. for 60 min. The supernatant solution was divided into 1.0 mL aliquots, quickly frozen in a dry-ice/ethanol bath and stored at −80° C. Protein concentration was determined by the Bradford assay using bovine serum albumin as the standard. […] Competitive ligands were added as 1.0 μL of 100× solution in DMSO. After mixing, 95 μL of either LNCaP cell extracts or recombinant AR protein (PanVera, Madison, Wis.) was added and the solutions were vortexed and incubated at room temperature for 2-3 h. […]

Take `c1ccc2c(Cc3c[nH]c4ccccc34)c[nH]c2c1` [DIM, 3,3′-diindolylmethane]: the inhibition at 50 µM in the assay on LNCaP cells came out at 70%. Besides, the “distribution of GFP-AR fluorescence” value in the assay with GFP-AR (DIM alone) is on record as “predominantly cytoplasmic distribution”. In addition, in the assay with GFP-AR (DIM treatment with DHT), the “formation of AR foci in the nucleus” value is given as “prevented the formation of AR foci”. Besides, the “inhibition of AR translocation induced by DHT” value in the assay with GFP-AR (co-treatment with 50 μM DIM and 1 nM DHT) is “partially inhibited”. For the same compound, the “competition with labeled DHT for binding to the AR” value at mutant AR of LNCaP cells is “competes with labeled DHT for binding to the AR”. Moreover, the “effect on nuclear translocation of the AR, compound alone” value at AR (absence of DHT) is “had no effect”. Moreover, the “block of DHT-induced AR translocation” value on AR (co-treatment with 1 nM DHT) is given as “up to 75%”. In addition, the “incidence of BP-induced tumors of the forestomach” value in assay [1] is on record as “reduced the incidence”. For the same compound, the “incidence of DMBA-induced mammary tumors” value in assay [2] was “reduced the incidence”.
